# According to patent publication US9464044B2, “Compound having ability to inhibit 11Beta-HSD1 enzyme or pharmaceutically acceptable salt thereof, method for producing same, and pharmaceutical composition containing same as active ingredient” (AHN-GOOK PHARMACEUTICAL CO., LTD., priority 2012, dated 2016):
# pIC50: −log10 of the molar value.
# Target: 11β-HSD1 (Homo sapiens (Human), UniProt P28845)
# Experiment: 11β-HSD1 inhibiting activity, HTRF assay with human microsomal fractions
# Format: biochemical
# Conditions: 160 nM cortisone, 200 μM NADPH, 2 h at 37° C.
# Experimental: The inhibiting activity of 11β-HSD1 derived from microsomal fractions was measured using the HTRF assay (62CO2PEB, Cisbio). […] Europium (Eu^3+) cryptate and XL665-conjugated cortisol were then added to each well and incubated for an additional 2 h at room temperature. The Cortisol concentration was calculated u sing a calibration curve. The IC50 values were calculated from dose response curves using GraphPad Prism software.
# 11β-HSD1, sequence (P28845 whole entry): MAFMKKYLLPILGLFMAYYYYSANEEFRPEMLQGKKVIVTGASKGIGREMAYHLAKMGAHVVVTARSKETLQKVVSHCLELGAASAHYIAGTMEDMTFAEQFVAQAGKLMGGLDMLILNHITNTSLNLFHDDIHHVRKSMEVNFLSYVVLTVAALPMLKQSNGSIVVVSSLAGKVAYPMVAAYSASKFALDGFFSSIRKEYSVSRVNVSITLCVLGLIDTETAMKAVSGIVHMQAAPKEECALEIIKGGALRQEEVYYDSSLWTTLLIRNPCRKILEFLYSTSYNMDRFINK
row,Structure (SMILES),pIC50
1,"NC(=O)C12CC3CC(C1)C(NC(=O)C1(NS(=O)(=O)c4cc(Cl)c(Cl)cc4F)CC1)C(C3)C2 (centres unmarked) [Example 45, E-4-[1-(2-fluoro-4,5-dichloro-benzenesulfonylamino)cyclopropanecarboxamido]-adamantan-1-carboxylic acid amide]",7.49
2,"Cc1cc(S(=O)(=O)NC2(C(=O)NC3C4CC5CC3CC(C(N)=O)(C5)C4)CC2)c(F)cc1Cl (centres unmarked) [Example 46, E-4-[1-(2-fluoro-4-chloro-5-methyl-benzenesulfonylamino)cyclopropanecarboxamido]-adamantan-1-carboxylic acid amide]",7.46
3,"NC(=O)C12CC3CC(C1)C(NC(=O)C1(NS(=O)(=O)c4ccc(F)c(F)c4F)CC1)C(C3)C2 (centres unmarked) [Example 47, E-4-[1-(2,3,4-trifluoro-benzenesulfonylamino)cyclopropanecarboxamido]-adamantan-1-carboxylic acid amide]",6.31
4,"NC(=O)C12CC3CC(C1)C(NC(=O)C1(NS(=O)(=O)c4cccs4)CC1)C(C3)C2 (centres unmarked) [Example 48, E-4-[1-(thiophen-2-sulfonylamino)cyclopropanecarboxamido]-adamantan-1-carboxylic acid amide]",7.20
5,"O=C(NC1CC2CCC1C2)C1(NS(=O)(=O)c2cccc(Cl)c2)CC1 (centres unmarked) [Example 55, N-(bicyclo[2.2.1]heptan-2-yl)-1-(3-chloro-benzenesulfonylamino)cyclopropanecarboxamide]",8.08
6,"Cn1nccc1S(=O)(=O)NC1(C(=O)NC2C3CC4CC2CC(C(N)=O)(C4)C3)CC1 (centres unmarked) [Example 58, E-4-[1-(1-methyl-1H-pyrazole-5-sulfonylamino)cyclopropanecarboxamido]-adamantan-1-carboxylic acid amide]",7.76
7,NC(=O)C12CC3CC(C1)C(NC(=O)C1(NC(=O)c4cccc(F)c4F)CC1)C(C3)C2 (centres unmarked) [Example 59],7.95
8,NC(=O)C12CC3CC(C1)C(NC(=O)C1(NC(=O)c4ccc(C(F)(F)F)cn4)CC1)C(C3)C2 (centres unmarked) [Example 64],6.95
9,"CC(C)(CNS(=O)(=O)c1cccc(Cl)c1)C(=O)NC1C2CC3CC1CC(C(N)=O)(C3)C2 (centres unmarked) [Example 67, E-4-(3-(3-chlorobenzenesulfonylamino)-2,2-dimethylpropanamido)adamantan-1-carboxylic acid amide]",8.15
10,"CC(C)(CNS(=O)(=O)c1ccccc1)C(=O)NC1C2CC3CC1CC(C(N)=O)(C3)C2 (centres unmarked) [Example 69, E-4-[3-(benzenesulfonylamino)-2,2-dimethylpropanamido]adamantan-1-carboxylic acid amide]",7.54
11,"Cc1c(Cl)cccc1S(=O)(=O)NCC(C)(C)C(=O)NC1C2CC3CC1CC(C(N)=O)(C3)C2 (centres unmarked) [Example 70, E-4-[3-(3-chloro-2-methyl-benzenesulfonylamino)-2,2-dimethylpropanamido]adamantan-1-carboxylic acid amide]",8.21
12,"CN(C(C)(C)C(=O)NC1C2CC3CC1CC(C(N)=O)(C3)C2)S(=O)(=O)c1ccccc1F (centres unmarked) [Example 72, E-4-[2-(2-fluoro-N-methyl-benzenesulfonylamino)-2-methylpropanamido]adamantan-1-carboxylic acid amide]",8.92
13,"NC(=O)C12CC3CC(C1)C(NC(=O)c1ccccc1NS(=O)(=O)c1ccccc1F)C(C3)C2 (centres unmarked) [Example 92, E-4-[2-(2-fluoro-benzenesulfonylamino)-benzamido]-adamantan-1-carboxylic acid amide]",6.83
14,"NC(=O)C12CC3CC(C1)C(NC(=O)c1cccc(NS(=O)(=O)c4ccc(F)cc4)c1)C(C3)C2 (centres unmarked) [Example 94, E-4-[3-(4-fluoro-benzenesulfonylamino)-benzamido]-adamantan-1-carboxylic acid amide]",7.12
15,"CN(c1cccc(C(=O)NC2C3CC4CC2CC(C(N)=O)(C4)C3)c1)S(=O)(=O)c1ccccc1C(F)(F)F (centres unmarked) [Example 99, E-4-(3-[(2-trifluoromethyl-benzenesulfonyl)-methylamino]-benzamido)-adamantan-1-carboxylic acid amide]",8.72
16,NC(=O)C12CC3CC(C1)C(NC(=O)c1cccc(NS(=O)(=O)c4ccccc4C(F)(F)F)c1)C(C3)C2 (centres unmarked) [Example 100],7.82
17,"NC(=O)C12CC3CC(C1)C(NC(=O)c1cccc(NS(=O)(=O)c4ccco4)c1)C(C3)C2 (centres unmarked) [Example 103, E-4-[3-(furan-2-sulfonylamino)-benzamido]-adamantan-1-carboxylic acid amide]",7.62
18,NC(=O)C12CC3CC(C1)C(NC(=O)c1cccc(NS(=O)(=O)c4ccccc4)c1)C(C3)C2 (centres unmarked) [Example 105],7.37
19,NC(=O)C12CC3CC(C1)C(NC(=O)c1cccc(NS(=O)(=O)c4ccccc4Cl)c1)C(C3)C2 (centres unmarked) [Example 106],8.32
20,Cc1nc(C)c(S(=O)(=O)Nc2cccc(C(=O)NC3C4CC5CC3CC(C(N)=O)(C5)C4)c2)s1 (centres unmarked) [Example 107],7.22
21,"Cc1n[nH]c(C)c1S(=O)(=O)Nc1cccc(C(=O)NC2C3CC4CC2CC(C(N)=O)(C4)C3)c1 (centres unmarked) [Example 108, E-4-[3-(3,5-dimethyl-1H-pyrazole-4-sulfonylamino)-benzamido]-adamantan-1-carboxylic acid amide]",7.29
22,"NC(=O)C12CC3CC(C1)C(NC(=O)c1cccc(NS(=O)(=O)c4ccc(C(F)(F)F)c(Cl)c4)c1)C(C3)C2 (centres unmarked) [Example 114, E-4-[3-(3-chloro-4-(trifluoromethyl)benzenesulfonylamino)benzamido]adamantan-1-carboxylic acid amide]",7.51
23,NC(=O)C12CC3CC(C1)C(NC(=O)c1cccc(NS(=O)(=O)c4ccccc4C(F)(F)F)c1)C(C3)C2 (centres unmarked) [Example 115],7.72

# Second part, the molecule after the results:
row,pIC50,Structure (SMILES)
1,7.84,"NC(=O)C12CC3CC(C1)C(NC(=O)c1cccc(NS(=O)(=O)c4ccc(Br)cc4Cl)c1)C(C3)C2 (centres unmarked) [Example 116, E-4-[3-(2-chloro-4-bromo-benzenesulfonylamino)-benzamido]-adamantan-1-carboxylic acid amide]"
2,8.30,"NC(=O)C12CC3CC(C1)C(NC(=O)c1cccc(NS(=O)(=O)c4c(Cl)cc(Cl)cc4Cl)c1)C(C3)C2 (centres unmarked) [Example 117, E-4-[3-(2,4,6-trichloro-benzenesulfonylamino)-benzamido]-adamantan-1-carboxylic acid amide]"
3,7.69,"NC(=O)C12CC3CC(C1)C(NC(=O)c1cccc(NS(=O)(=O)c4cc(F)cc(Cl)c4)c1)C(C3)C2 (centres unmarked) [Example 118, E-4-[3-(3-chloro-5-fluoro-benzenesulfonylamino)-benzamido]-adamantan-1-carboxylic acid amide]"
4,7.57,"NC(=O)C12CC3CC(C1)C(NC(=O)c1cccc(NS(=O)(=O)c4cccc(F)c4)c1)C(C3)C2 (centres unmarked) [Example 120, E-4-[3-(3-fluoro-benzenesulfonylamino)-benzamido]-adamantan-1-carboxylic acid amide]"
5,8.11,"NC(=O)C12CC3CC(C1)C(NC(=O)c1cccc(NS(=O)(=O)c4ccc(F)cc4F)c1)C(C3)C2 (centres unmarked) [Example 121, E-4-[3-(2,4-difluoro-benzenesulfonylamino)-benzamido]-adamantan-1-carboxylic acid amide]"
6,7.82,"NC(=O)C12CC3CC(C1)C(NC(=O)c1cccc(NS(=O)(=O)c4cc(F)ccc4F)c1)C(C3)C2 (centres unmarked) [Example 122, E-4-[3-(2,5-difluoro-benzenesulfonylamino)-benzamido]-adamantan-1-carboxylic acid amide]"
7,7.89,"NC(=O)C12CC3CC(C1)C(NC(=O)c1cccc(NS(=O)(=O)c4c(F)cccc4F)c1)C(C3)C2 (centres unmarked) [Example 123, E-4-[3-(2,6-difluoro-benzenesulfonylamino)-benzamido]-adamantan-1-carboxylic acid amide]"
8,7.94,"NC(=O)C12CC3CC(C1)C(NC(=O)c1cccc(NS(=O)(=O)c4ccccc4C(F)(F)F)c1F)C(C3)C2 (centres unmarked) [Example 125, E-4-[2-fluoro-3-(2-(trifluoromethyl)benzenesulfonylamino)benzamido]adamantan-1-carboxylic acid amide]"
9,6.83,"NC(=O)C12CC3CC(C1)C(NC(=O)c1cccc(NS(=O)(=O)c4cccc(Cl)c4)c1F)C(C3)C2 (centres unmarked) [Example 132, E-4-[2-fluoro-3-(3-chlorobenzenesulfonylamino)benzamido]adamantan-1-carboxylic acid amide]"
10,7.21,"NC(=O)C12CC3CC(C1)C(NC(=O)c1cccc(NS(=O)(=O)C4CC4)c1)C(C3)C2 (centres unmarked) [Example 138, E-4-(3-(cyclopropanesulfonamido)benzamido)adamantan-1-carboxylic acid amide]"
11,7.01,NC(=O)C12CC3CC(C1)C(NC(=O)C1(CNC(=O)N4CCc5ccccc5C4)CC1)C(C3)C2 (centres unmarked) [Example 140]
12,7.28,"NC(=O)C12CC3CC(C1)C(NC(=O)C1(CNC(=O)N4CCCc5ccccc54)CC1)C(C3)C2 (centres unmarked) [Example 141, E-3,4-dihydro-2H-quinolin-1-carboxylic acid[1-(5-carbamoyl-adamantan-2-ylcarbamoyl)-cyclopropylmethyl]-amide]"
13,6.89,"NC(=O)C12CC3CC(C1)C(NC(=O)C1(CNC(=O)N4CCNc5ccccc54)CC1)C(C3)C2 (centres unmarked) [Example 146, E-3,4-dihydro-2H-quinoxalin-1-carboxylic acid[1-(5-carbamoyl-adamantan-2-ylcarbamoyl)-cyclopropylmethyl]-amide]"

# Test system: KKAy mice
# Experiment: In vivo study of the lowering effect on plasma glucose and plasma insulin in KKAy mouse model
# Conditions: either 100 mg/kg or 50 mg/kg
row,Structure (SMILES),levels of plasma glucose and plasma insulin
1,"NC(=O)C12CC3CC(C1)C(NC(=O)C1(CNS(=O)(=O)c4ccccc4F)CC1)C(C3)C2 (centres unmarked) [Example 3, E-4-[1-((2-fluoro-benzenesulfonylamino)methyl)cyclopropanecarboxamido]-adamantan-1-carboxylic acid amide]",significantly reduced
2,"CN(CC1(C(=O)NC2C3CC4CC2CC(C(N)=O)(C4)C3)CC1)S(=O)(=O)c1ccccc1F (centres unmarked) [Example 22, E-4-[1-((2-fluoro-N-methyl-benzenesulfonylamino)methyl)cyclopropanecarboxamido]-adamantan-1-carboxylic acid amide]",significantly reduced
